How the values were obtained:
[1] = Hydrogel formation in buffer viewed under light microscope; conditions: pH 4 general lab buffer or pH 9 K2HPO4/MgCl2 buffer (20 μL each)
MMP-9 = MMP-9 (Homo sapiens, UniProt P14780); conditions: cited from earlier work
MMP-2 = target: T1, MMP-2 (Homo sapiens, UniProt P08253); conditions: cited from earlier work
T1 sequence (P08253 110-660): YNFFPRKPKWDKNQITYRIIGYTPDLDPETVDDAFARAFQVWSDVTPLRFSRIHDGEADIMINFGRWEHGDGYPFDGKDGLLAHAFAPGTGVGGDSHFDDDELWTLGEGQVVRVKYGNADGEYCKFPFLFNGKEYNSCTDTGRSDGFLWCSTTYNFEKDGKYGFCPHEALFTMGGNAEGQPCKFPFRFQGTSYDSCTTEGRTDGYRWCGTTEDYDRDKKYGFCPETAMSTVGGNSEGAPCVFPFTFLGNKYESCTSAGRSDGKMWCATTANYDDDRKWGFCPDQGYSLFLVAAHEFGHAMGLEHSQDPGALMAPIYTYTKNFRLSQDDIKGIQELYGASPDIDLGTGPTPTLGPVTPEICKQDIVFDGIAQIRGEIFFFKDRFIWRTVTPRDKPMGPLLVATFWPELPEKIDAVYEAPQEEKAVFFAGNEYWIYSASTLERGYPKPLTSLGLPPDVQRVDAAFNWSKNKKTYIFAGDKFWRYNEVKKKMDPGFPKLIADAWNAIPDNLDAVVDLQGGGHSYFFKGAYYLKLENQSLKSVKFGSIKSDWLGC

MMP-7 = target: T2, MMP-7 (Homo sapiens, UniProt P09237); conditions: cited from earlier work
T2 sequence (P09237 95-267): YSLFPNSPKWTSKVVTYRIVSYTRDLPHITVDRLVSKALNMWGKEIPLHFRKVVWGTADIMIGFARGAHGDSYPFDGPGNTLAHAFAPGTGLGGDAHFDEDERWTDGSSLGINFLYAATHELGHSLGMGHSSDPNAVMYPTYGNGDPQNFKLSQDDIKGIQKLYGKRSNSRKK

MMP-3 = MMP-3 (Homo sapiens, UniProt P08254); conditions: cited from earlier work
Sequence of MMP-3 (P08254 100-477): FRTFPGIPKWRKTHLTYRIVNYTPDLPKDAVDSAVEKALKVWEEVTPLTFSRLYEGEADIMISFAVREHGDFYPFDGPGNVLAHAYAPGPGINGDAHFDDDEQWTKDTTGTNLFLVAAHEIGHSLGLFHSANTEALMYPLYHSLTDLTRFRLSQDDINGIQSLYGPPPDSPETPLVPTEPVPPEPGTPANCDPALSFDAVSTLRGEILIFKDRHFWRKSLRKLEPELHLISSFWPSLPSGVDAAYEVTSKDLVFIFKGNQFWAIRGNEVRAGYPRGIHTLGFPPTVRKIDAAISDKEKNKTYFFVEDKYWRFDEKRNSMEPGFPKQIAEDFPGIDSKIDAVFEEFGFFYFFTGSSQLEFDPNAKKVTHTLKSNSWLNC

MMP-8 = MMP-8 (Homo sapiens, UniProt P22894); conditions: cited from earlier work
Sequence of MMP-8 (P22894 101-467): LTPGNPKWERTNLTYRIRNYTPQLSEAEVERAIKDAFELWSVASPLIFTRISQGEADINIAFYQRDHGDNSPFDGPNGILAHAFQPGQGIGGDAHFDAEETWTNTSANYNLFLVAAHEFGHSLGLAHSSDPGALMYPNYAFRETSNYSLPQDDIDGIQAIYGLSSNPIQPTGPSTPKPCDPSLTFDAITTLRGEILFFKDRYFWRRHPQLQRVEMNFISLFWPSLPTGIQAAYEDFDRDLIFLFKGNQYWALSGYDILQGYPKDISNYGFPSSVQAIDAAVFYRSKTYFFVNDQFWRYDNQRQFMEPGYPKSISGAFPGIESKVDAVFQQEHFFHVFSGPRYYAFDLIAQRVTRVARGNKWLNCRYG

MMP-1 = target: T3, MMP-1 (Homo sapiens, UniProt P03956); conditions: cited from earlier work
T3 sequence (P03956 100-469): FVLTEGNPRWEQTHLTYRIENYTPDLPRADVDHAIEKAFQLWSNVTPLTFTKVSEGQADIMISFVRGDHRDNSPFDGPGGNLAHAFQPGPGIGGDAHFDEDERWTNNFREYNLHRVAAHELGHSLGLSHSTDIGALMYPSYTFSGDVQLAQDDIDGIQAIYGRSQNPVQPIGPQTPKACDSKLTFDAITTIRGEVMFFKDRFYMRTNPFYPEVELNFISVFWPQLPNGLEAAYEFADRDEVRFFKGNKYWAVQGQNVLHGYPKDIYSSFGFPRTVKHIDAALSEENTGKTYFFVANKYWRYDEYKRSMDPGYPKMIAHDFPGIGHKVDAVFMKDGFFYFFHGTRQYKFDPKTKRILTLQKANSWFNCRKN

Sequence of MMP-9 (P14780 94-707): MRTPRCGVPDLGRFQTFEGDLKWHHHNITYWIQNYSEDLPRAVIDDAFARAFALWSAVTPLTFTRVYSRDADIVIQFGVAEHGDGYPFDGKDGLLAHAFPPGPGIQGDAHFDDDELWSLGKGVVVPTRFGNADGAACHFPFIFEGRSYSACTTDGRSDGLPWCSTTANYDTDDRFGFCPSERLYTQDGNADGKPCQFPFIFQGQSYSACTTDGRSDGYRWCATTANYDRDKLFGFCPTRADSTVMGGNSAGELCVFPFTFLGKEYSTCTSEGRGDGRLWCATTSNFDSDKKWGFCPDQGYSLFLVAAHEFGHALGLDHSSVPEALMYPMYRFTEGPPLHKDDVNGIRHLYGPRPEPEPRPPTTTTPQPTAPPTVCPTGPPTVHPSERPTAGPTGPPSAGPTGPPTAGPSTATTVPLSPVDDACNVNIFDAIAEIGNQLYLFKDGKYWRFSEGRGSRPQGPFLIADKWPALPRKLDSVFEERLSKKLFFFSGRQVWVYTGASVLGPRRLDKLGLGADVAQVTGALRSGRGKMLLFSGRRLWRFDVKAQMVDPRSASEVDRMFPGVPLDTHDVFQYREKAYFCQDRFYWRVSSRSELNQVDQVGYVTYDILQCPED

Hydrogel formation on contact with buffer [1]	Compound	Relative rate MMP-9 (MMP-9)	Relative rate MMP-2 (MMP-2)	Relative rate MMP-7 (MMP-7)	Relative rate MMP-3 (MMP-3)	Relative rate MMP-8 (MMP-8)	Relative rate MMP-1 (MMP-1)
did not form a hydrogel	CN(C)c1ccc(/N=N/c2ccc(S(=O)(=O)NCCCC[C@H](NC(=O)OCC3c4ccccc4-c4ccccc43)C(=O)O)cc2)cc1 [compound 4-c]	–	–	–	–	–	–
–	Gly-Pro-Gln-Gly#Val-Ala-Gly-Gln	25	30	17	53	9.0	9.1
–	Gly-Pro-Gln-Leu#Ile-Ala-Gly-Gln	8.8	21	49	170	54	27
–	Gly-Pro-Gln-Met#Ile-Ain-Gly-Gln	12	22	150	110	140	200
–	Gly-Pro-Gln-Phe#Ile-Ala-Gly-Gln	26	15	63	68	170	95
–	Gly-Pro-Gln-Pro#Ile-Ala-Gly-Gln	46	32	140	170	190	260
–	Gly-Pro-Gln-Tyr#Ile-Ala-Gly-Gln	30	58	34	68	180	130
–	Gly-Pro-Gln-Val#Ile-Ala-GLy-Gln	<5.0	<5.0	<5.0	32	7.9	5.5
–	Gly-Pro-Hyp-Gly#Ile-Ala-Gly-Gln	15	32	17	83	15	11
–	Gly-Pro-Leu-Gly#Ile-Ala-Gly-Gln	290	330	420	190	260	150
–	Gly-Pro-Tyr-Gly#Ile-Ala-Gly-Gln	150	200	240	230	110	200
–	Gly-Pro-Val-Gly#Ile-Ala-Gly-Gln	110	130	57	160	30	32
–	Gly-Pto-Arg-Gly#Ile-Ala-Gly-Gln	83	160	13	99	32	17
–	Gly-Pto-Met-Gly#Ile-Ala-Gly-Gln (IAGQ; printed: Ile-Ala-Gly-Gln)	180	120	400	120	160	160
